From patent US6555128B2, “Feeds containing docosahexaenoic acid and/or conjugated docosahexaenoic acid, and a method for farming fishes by using such feeds” (Hokkaido University, priority 2000, dated 2003)

Assays:
steelheads [1] = test: Feeding of steelheads: content and composition of the lipid in the internal organ; assay type: in vivo, Oncorhynchus, steelheads (rainbow trouts)
Protocol: (§1) Effects of ethyl docosahexaenoate and conjugated ethyl docosahexaenoate upon accumulation of the fat and the lipid composition were examined by feeding both ethyl esters to rainbow trouts.
(§2) Measuring conditions were as follows.
(§3) 1) Sample fish: Oncorhynchus, steelheads 3 months old after birth
(§4) 2) Farming condition: water temperature 10° C., each group 60 fishes
(§5) 3) Feed (fundamental feed: compounded feed for oriental trouts)
(§6) 1st group: fundamental feed +olive oil (5 wt %)
(§7) 2nd group: fundamental feed +olive oil (3 wt %) +ethyl docosahexaenoate (0.5 wt %)
(§8) 3rd group: fundamental feed +olive oil (4.5 wt %) +ethyl conjugated docosahexaenoate (0.5 wt %)
(§9) 4th group: fundamental feed +olive oil (3 wt %) +ethyl conjugated docosahexaenoate (2 wt %)
(§10) Conjugated ethyl docosahexaenoate used is obtained by isomerization of double bonds of ethyl docosahexaenoate in the presence of an alkali catalyst, and its composition consisted of 81.4% of conjugated ethyl docosahexaenoate and 18.6% of ethyl docosahexaenoate. More specifically, conjugated ethyl docosahexaenoate consisted of 57.4% of conjugated diene ester, 12.0% of conjugated triene ester, 12.0% of conjugated tetraene ester and 18.6% of ethyl docosahexaenoate. […]
(§11) Steelheads used, which were 3 months old after birth (average weight 0.82 g) and divided into four groups each consisting 60 steelheads, were farmed at a water temperature of about 10° C. for 21 weeks.
(§12) Effects of the feeds upon the internal organs and the lipid contents of the steelheads 21 weeks old after starting the farming were examined. The concrete lipid compositions in the internal organs are shown in Table 1, and the concrete lipid compositions in muscles shown in Table 2.

steelheads [2] = test: Feeding of steelheads: content and composition of the lipid in muscles; assay type: in vivo, Oncorhynchus, steelheads (rainbow trouts)
Protocol: as §1, §2, §3, §4, §5, §6, §7, §8, §9, §10, §11, §12

[3] = 0.5 wt % in feed, farmed 21 weeks, water 10° C.
[4] = 2nd to 4th groups versus feed with neither ester

Question: Which results are given for `CC/C=C\C/C=C\C/C=C\C/C=C\C/C=C\C/C=C\CCC(=O)OCC` [ethyl docosahexaenoate]?
Answer: Lipid composition (%) FFA, internal organ (steelheads [1]; [3]): 3.0%; Lipid composition (%) PL, internal organ (steelheads [1]; [3]): 5.8%; Lipid composition (%) SE, internal organ (steelheads [1]; [3]): 1.6%; Lipid composition (%) TG, internal organ (steelheads [1]; [3]): 89.6%; Lipid content (%) in the internal organ (steelheads [1]; [3]): 23.2%; lipid contents in the internal organs compared with 1st group (FIG. 1) (steelheads [1]; [4]): lower lipid contents; Lipid composition (%) FFA, muscles (steelheads [2]; [3]): 1.7%; Lipid composition (%) PL, muscles (steelheads [2]; [3]): 21.0%; Lipid composition (%) SE, muscles (steelheads [2]; [3]): 0.7%; Lipid composition (%) TG, muscles (steelheads [2]; [3]): 76.6%; Lipid content (%) in muscles (steelheads [2]; [3]): 4.3%; lipid contents in the muscles compared with 1st group (FIG. 1) (steelheads [2]; [4]): lower lipid contents
